Measurements: patent publication US20250090541A1, “Methods for Treating Neurodegenerative Disorders” (Praetego Inc, priority 2022, published 2025)

Legend:
htau mice = test: Motor nerve conduction velocity (NCV), htau mice; type: in vivo; conditions: htau mice with or without treatment, 8, 16 and 25 weeks
Procedure: (§1) Female and male human tau mice (Jax #005491) were treated daily for 25 weeks with PTG-630 trihydrochloride at 1 and 5 mg/kg in drinking water starting at 10 weeks of age (before cognitive deficits appear).
Motor nerve conduction velocity (NCV) was measured at 8, 16 and 25 weeks after treatment.

[1] = tested on: carboxymethyl Lysine (CML); test: Carboxymethyl lysine (CML) by LC-MS/MS in terminal plasma and brain cortex, htau mice; type: in vivo
Procedure: as §1
Terminal plasma and brain cortex were also analyzed for carboxymethyl Lysine (CML), a prominent advanced glycation end-product (AGE), by an LC-MS/MS quantitative chemical analysis method. PTG-630 and PTG-670 were developed as potent AGE inhibitors and tested for amelioration of PNS and CNS damage due to the extensive work that implicated AGE formation as a causative factor in the development of neurodegenerative pathologies.

human tau mice [2] = test: Barnes maze long-term memory, human tau mice; type: in vivo; conditions: by week 23 of treatment (between week 19 and 23), male and female combined
Excerpt: The human tau mouse is a model of sporadic dementia that expresses human non-mutant tau (6 isoforms) in the absence of endogenous mouse tau. The model develops age-associated pathology, with hyperphosphorylated tau detected in cell bodies and dendrites by 3 months of age (Andorfer et al., 2003; J Neurochem 86, 582-590, doi:10.1046/j.1471-4159.2003.01879.x). These mice display abnormal spatial learning by 6 months of age and impaired learning in the Morris water maze with memory loss by 12 months of age, as well as memory deficits in the Barnes maze by 6 months of age (Marquez et al, 2021).
as §1
Learning and memory were assessed using the Barnes maze test and the object recognition test at 6-8, 12-13, 18-19 and 24-25 weeks. Corneal nerves were imaged by corneal confocal microscopy (CCM) at week 6, 9, 12, 18 and 25. Data represent male and female results combined, mean±sem.
Using the Barnes maze test, long-term memory was assessed between week 13 and 19 and between week 19 and 23 of treatment (FIG. 1A, B).

human tau mice [3] = test: Tactile allodynia (manual von Frey filaments), human tau mice; type: in vivo; conditions: 5 mg/kg, after 14 weeks of treatment
Procedure: as §1
Tactile and thermal responses, measures of associated damage to the peripheral nervous system (PNS), were assessed at 8, 14, 18 and 24 weeks. hTau mice developed significant tactile allodynia measured with manual von Frey filaments at the 14 weeks time point (FIG. 4).

[4] = Oral pharmacokinetics and tissue distribution of PTG-630 (blood brain barrier penetration); type: in vivo, Sprague-Dawley rats; design: AUC(0-t) / AUC(0-inf): concentration or dose not given beside the values; conditions: for concentration at 0.5 h: 0.50 h
Excerpt: This was a study in male Sprague-Dawley rats. The primary objective was to assess the IV and PO pharmacokinetics of PTG-630. The secondary objectives were to assess tissue distribution after oral administration of PTG-630 (free base form) and the renal excretion, hepatic extraction efficiency and bioavailability of PTG-630.
Twelve non-cannulated animals were arbitrarily assigned to groups upon arrival and housed together throughout the experiment. The animals were acclimated to their designated housing for at least 24 hours before the first day of dosing. PTG-630 was formulated in 0.5% methyl cellulose and 0.1% Tween 20 in water for injection and administered to animals by mouth (PO) with blood and tissue samples collected at predetermined time points. Right thigh muscle, liver, brain, right sciatic nerve, and right kidney were collected at the terminal time points. These samples were collected and placed into individually labeled tubes and frozen at −20° C. Tissues samples were analyzed for concentration of PTG-630.

[5] = Mortality and apparent toxicity, 25 weeks in human tau mice; type: in vivo; conditions: 1 and 5 mg/kg in drinking water
Procedure: as §1
• 1—Control (C57B16), N=7 male, N=7 female, Final N=6 male, N=6 female • 2—htau, N=7 male, N=7 female, Final N=7 male, N=6 female • 3—htau+PTG-630 1 mg/kg drinking water, N=7 male, N=7 female, Final N=7 male, N=7 female • 4—htau+PTG-630 5 mg/kg drinking water, N=7 male, N=7 female, Final N=6 male, N=7 female
One mouse in group 4 died at week 8 from tooth occlusion.

[6] = male, Sprague-Dawley, rat, brain, po
[7] = male, Sprague-Dawley, rat, kidney, po
[8] = male, Sprague-Dawley, rat, liver, po
[9] = male, Sprague-Dawley, rat, muscle, po
[10] = male, Sprague-Dawley, rat, plasma, po
[11] = male, Sprague-Dawley, rat, sciatic nerve, po
[12] = male, Sprague-Dawley, rat, Brain, PO, mean
[13] = male, Sprague-Dawley, rat, Kidney, PO, mean
[14] = male, Sprague-Dawley, rat, Liver, PO, mean
[15] = male, Sprague-Dawley, rat, Muscle, PO, mean
[16] = male, Sprague-Dawley, rat, Plasma, PO, mean
[17] = male, Sprague-Dawley, rat, Sciatic Nerve, PO, mean

For `Cc1ncc(CN2CCOCC2)c(-c2ncc[nH]2)c1O` [PTG-630, 4-(1H-imidazol-2-yl)-2-methyl-5-(morpholinomethyl)pyridin-3-ol], which Nerve conduction velocity (htau mice) is on record?
Its Nerve conduction velocity is “not significantly different from control levels”.

What about the “CML levels in cortex” value ([1]; female htau mice, 5 mg/kg) of the same compound?
The value was “significantly (p<0.05) reduced”.

And the “CML levels in cortex” value ([1]; male)?
The value was “No significant difference”.

And the “CML levels in plasma” value ([1]; male and female)?
Its value is “No significant difference”.

And the “long-term memory impairment in Barnes maze” value (human tau mice [2])?
Its value is “significantly prevented”.

And the tactile allodynia (human tau mice [3])?
The tactile allodynia was “significantly ameliorated”.

What about the Concentration ([4]; Brain, 24 h, PO, mean) of the same compound?
Its Concentration is “BLQ”.

What about the “% Extrap” value ([4]; Brain, PO) of the same compound?
The value was 23.7%.

What about the Concentration ([4]; Kidney, 24 h, PO, mean) of the same compound?
Its Concentration is “BLQ”.

What about the “% Extrap” value ([4]; Kidney, PO) of the same compound?
Its value is 14.0%.

What about the Concentration ([4]; Liver, 24 h, PO, mean) of the same compound?
The Concentration was “BLQ”.

And the “% Extrap” value ([4]; Liver, PO)?
The value was 5.72%.

What about the Concentration ([4]; Muscle, 24 h, PO, mean) of the same compound?
Its Concentration is “BLQ”.

What about the “% Extrap” value ([4]; Muscle, PO) of the same compound?
The value was 30.7%.

What about the “% Extrap” value ([4]; Plasma, PO) of the same compound?
The value was 1.13%.

And the Concentration ([4]; Sciatic Nerve, 24 h, PO, mean)?
The Concentration was “BLQ”.

And the “detectability in tissues 24 hours post dose” value ([4]; any tissue except plasma, 24 hours post dose)?
Its value is “not detectable”.

And the “Half-life in brain relative to plasma” value ([4]; brain vs plasma)?
The value was 1.3 times.

And the “quantifiability in tested tissues” value ([4]; liver, kidney, brain, sciatic nerve, muscle)?
The value was “quantifiable in all tested tissues”.

And the AUC(0-inf) [4, 6]?
The AUC(0-inf) was 6720 ng·h/mL.

And the AUC(0-t) [4, 6]?
Its AUC(0-t) is 5130 ng·h/mL.

What about the Cmax [4, 6] of the same compound?
Its Cmax is 1990 ng/mL.

And the Tmax [4, 6]?
The Tmax was 1 h.

And the half-life [4, 6]?
Its half-life is 4.53 h.

And the AUC(0-inf) [4, 7]?
Its AUC(0-inf) is 11400 ng·h/mL.

What about the AUC(0-t) [4, 7] of the same compound?
Its AUC(0-t) is 9770 ng·h/mL.

What about the Cmax [4, 7] of the same compound?
Its Cmax is 3880 ng/mL.

And the Tmax [4, 7]?
Its Tmax is 1 h.

What about the AUC(0-inf) [4, 8] of the same compound?
Its AUC(0-inf) is 22000 ng·h/mL.

What about the AUC(0-t) [4, 8] of the same compound?
Its AUC(0-t) is 20700 ng·h/mL.

And the Cmax [4, 8]?
The Cmax was 6350 ng/mL.

And the Tmax [4, 8]?
Its Tmax is 1 h.

And the AUC(0-inf) [4, 9]?
The AUC(0-inf) was 3820 ng·h/mL.

And the AUC(0-t) [4, 9]?
Its AUC(0-t) is 2650 ng·h/mL.

And the Cmax [4, 9]?
Its Cmax is 1030 ng/mL.

And the Tmax [4, 9]?
The Tmax was 1 h.

What about the AUC(0-inf) [4, 10] of the same compound?
Its AUC(0-inf) is 8700 ng·h/mL.

And the AUC(0-t) [4, 10]?
The AUC(0-t) was 8600 ng·h/mL.

What about the Cmax [4, 10] of the same compound?
Its Cmax is 1160 ng/mL.

What about the Tmax [4, 10] of the same compound?
The Tmax was 1 h.

And the AUC(0-t) [4, 11]?
Its AUC(0-t) is 6550 ng·h/mL.

What about the Cmax [4, 11] of the same compound?
Its Cmax is 1830 ng/mL.

What about the Tmax [4, 11] of the same compound?
The Tmax was 1 h.

What about the Kp ([4]; male, Sprague-Dawley, rat, selected tissues vs plasma, po, read-out: exposure in selected tissues relative to exposure in plasma) of the same compound?
The Kp was 3 to 5.

What about the concentration at 0.5 h [4, 12] of the same compound?
Its concentration at 0.5 h is 1430 ng/mL.

What about the concentration at 1 h [4, 12] of the same compound?
Its concentration at 1 h is 1990 ng/mL.

What about the concentration at 2 h [4, 12] of the same compound?
The concentration at 2 h was 450 ng/mL.

What about the concentration at 4 h [4, 12] of the same compound?
The concentration at 4 h was 1000 ng/mL.

And the concentration at 6 h [4, 12]?
Its concentration at 6 h is 244 ng/mL.

And the concentration at 0.5 h [4, 13]?
The concentration at 0.5 h was 2230 ng/mL.

And the concentration at 1 h [4, 13]?
Its concentration at 1 h is 3880 ng/mL.

And the concentration at 2 h [4, 13]?
The concentration at 2 h was 1510 ng/mL.

And the concentration at 4 h [4, 13]?
Its concentration at 4 h is 1520 ng/mL.

What about the concentration at 6 h [4, 13] of the same compound?
The concentration at 6 h was 466 ng/mL.

What about the concentration at 0.5 h [4, 14] of the same compound?
The concentration at 0.5 h was 5720 ng/mL.

And the concentration at 1 h [4, 14]?
Its concentration at 1 h is 6350 ng/mL.

And the concentration at 2 h [4, 14]?
The concentration at 2 h was 5080 ng/mL.

What about the concentration at 4 h [4, 14] of the same compound?
The concentration at 4 h was 2420 ng/mL.

What about the concentration at 6 h [4, 14] of the same compound?
The concentration at 6 h was 647 ng/mL.

And the concentration at 0.5 h [4, 15]?
Its concentration at 0.5 h is 775 ng/mL.

What about the concentration at 1 h [4, 15] of the same compound?
Its concentration at 1 h is 1030 ng/mL.

What about the concentration at 2 h [4, 15] of the same compound?
Its concentration at 2 h is 290 ng/mL.

What about the concentration at 4 h [4, 15] of the same compound?
The concentration at 4 h was 401 ng/mL.

What about the concentration at 6 h [4, 15] of the same compound?
Its concentration at 6 h is 245 ng/mL.

What about the concentration at 0.5 h [4, 16] of the same compound?
The concentration at 0.5 h was 930 ng/mL.

And the concentration at 1 h [4, 16]?
The concentration at 1 h was 1160 ng/mL.

And the concentration at 2 h [4, 16]?
Its concentration at 2 h is 274 ng/mL.

And the concentration at 4 h [4, 16]?
The concentration at 4 h was 794 ng/mL.

What about the concentration at 6 h [4, 16] of the same compound?
The concentration at 6 h was 510 ng/mL.

And the concentration at 24 h ([4]; male, Sprague-Dawley, rat, Plasma, 24 h, PO, mean)?
Its concentration at 24 h is 18.4 ng/mL.

And the concentration at 0.5 h [4, 17]?
Its concentration at 0.5 h is 1660 ng/mL.

What about the concentration at 1 h [4, 17] of the same compound?
Its concentration at 1 h is 1830 ng/mL.

And the concentration at 2 h [4, 17]?
Its concentration at 2 h is 510 ng/mL.

And the concentration at 4 h [4, 17]?
Its concentration at 4 h is 989 ng/mL.

What about the concentration at 6 h [4, 17] of the same compound?
Its concentration at 6 h is 690 ng/mL.

And the Tmax ([4]; male, Sprague-Dawley, rat, tissues, comparable to plasma, PO)?
Its Tmax is 1 h.

And the apparent toxicity [5]?
The apparent toxicity was “No toxicity was apparent”.
